In experiment [1] the target is Ephrin type-A receptor 4 (Homo sapiens) (UniProt P54764). The experiment is described as follows: Inhibition of human recombinant EphA4 at 40 nM in presence of ATP by radiometric assay relative to control.
Experiment [2] concerns the target Calcium/calmodulin-dependent protein kinase type 1B (Homo sapiens) (UniProt Q6P2M8). The experiment is described as follows: Inhibition of human recombinant CaMK1b at 40 nM in presence of ATP by radiometric assay relative to control.
The target in experiment [3] is T1, Inhibitor of nuclear factor kappa-B kinase subunit alpha (Homo sapiens) (UniProt O15111).
T1 sequence (whole entry): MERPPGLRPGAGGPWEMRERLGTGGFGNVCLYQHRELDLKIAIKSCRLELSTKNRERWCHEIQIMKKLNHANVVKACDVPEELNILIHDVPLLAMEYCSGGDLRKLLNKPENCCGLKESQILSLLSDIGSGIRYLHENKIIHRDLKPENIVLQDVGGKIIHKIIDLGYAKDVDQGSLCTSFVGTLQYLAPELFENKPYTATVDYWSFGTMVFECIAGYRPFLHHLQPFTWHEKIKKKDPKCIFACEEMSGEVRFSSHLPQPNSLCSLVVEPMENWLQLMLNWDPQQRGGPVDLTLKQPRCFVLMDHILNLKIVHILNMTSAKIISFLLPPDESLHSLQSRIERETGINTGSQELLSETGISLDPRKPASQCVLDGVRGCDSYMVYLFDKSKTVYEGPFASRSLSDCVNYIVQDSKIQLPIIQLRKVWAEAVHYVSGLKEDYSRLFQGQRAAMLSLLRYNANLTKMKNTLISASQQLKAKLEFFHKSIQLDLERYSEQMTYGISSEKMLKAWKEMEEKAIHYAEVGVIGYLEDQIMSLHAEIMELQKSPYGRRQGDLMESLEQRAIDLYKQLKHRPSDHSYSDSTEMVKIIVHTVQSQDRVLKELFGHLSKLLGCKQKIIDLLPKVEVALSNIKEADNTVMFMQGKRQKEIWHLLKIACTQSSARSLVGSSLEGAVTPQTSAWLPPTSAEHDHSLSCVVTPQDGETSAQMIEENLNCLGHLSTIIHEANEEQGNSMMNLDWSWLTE
Kind of experiment: Inhibition of human recombinant IKKa at 40 nM in presence of ATP by radiometric assay relative to control.

The target in experiment [4] is Insulin-like growth factor 1 receptor (Homo sapiens) (UniProt P08069). The experiment is described as follows: Inhibition of human recombinant IGF1R at 40 nM related to control ULK1.
Insulin-like growth factor 1 receptor (Homo sapiens), sequence (P08069 31-736 limits assumed): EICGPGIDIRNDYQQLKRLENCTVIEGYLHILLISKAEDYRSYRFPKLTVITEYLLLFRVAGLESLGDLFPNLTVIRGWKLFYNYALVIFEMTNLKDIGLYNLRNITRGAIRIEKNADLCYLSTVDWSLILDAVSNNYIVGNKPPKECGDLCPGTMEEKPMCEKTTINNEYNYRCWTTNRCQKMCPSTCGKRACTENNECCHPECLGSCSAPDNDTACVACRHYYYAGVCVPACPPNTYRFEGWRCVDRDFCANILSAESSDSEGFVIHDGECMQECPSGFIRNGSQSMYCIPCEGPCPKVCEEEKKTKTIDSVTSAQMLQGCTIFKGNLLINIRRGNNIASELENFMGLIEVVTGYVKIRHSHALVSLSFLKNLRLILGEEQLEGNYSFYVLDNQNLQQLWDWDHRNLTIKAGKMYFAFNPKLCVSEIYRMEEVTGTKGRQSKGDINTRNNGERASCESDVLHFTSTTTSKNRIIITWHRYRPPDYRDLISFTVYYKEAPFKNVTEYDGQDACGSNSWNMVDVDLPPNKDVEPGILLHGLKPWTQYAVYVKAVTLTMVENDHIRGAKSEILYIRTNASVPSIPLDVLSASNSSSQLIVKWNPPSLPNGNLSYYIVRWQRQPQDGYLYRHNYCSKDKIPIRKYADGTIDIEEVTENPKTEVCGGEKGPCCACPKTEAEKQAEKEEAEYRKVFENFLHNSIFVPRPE
Insulin-like growth factor 1 receptor (Homo sapiens), sequence (P08069 741-1367 limits assumed): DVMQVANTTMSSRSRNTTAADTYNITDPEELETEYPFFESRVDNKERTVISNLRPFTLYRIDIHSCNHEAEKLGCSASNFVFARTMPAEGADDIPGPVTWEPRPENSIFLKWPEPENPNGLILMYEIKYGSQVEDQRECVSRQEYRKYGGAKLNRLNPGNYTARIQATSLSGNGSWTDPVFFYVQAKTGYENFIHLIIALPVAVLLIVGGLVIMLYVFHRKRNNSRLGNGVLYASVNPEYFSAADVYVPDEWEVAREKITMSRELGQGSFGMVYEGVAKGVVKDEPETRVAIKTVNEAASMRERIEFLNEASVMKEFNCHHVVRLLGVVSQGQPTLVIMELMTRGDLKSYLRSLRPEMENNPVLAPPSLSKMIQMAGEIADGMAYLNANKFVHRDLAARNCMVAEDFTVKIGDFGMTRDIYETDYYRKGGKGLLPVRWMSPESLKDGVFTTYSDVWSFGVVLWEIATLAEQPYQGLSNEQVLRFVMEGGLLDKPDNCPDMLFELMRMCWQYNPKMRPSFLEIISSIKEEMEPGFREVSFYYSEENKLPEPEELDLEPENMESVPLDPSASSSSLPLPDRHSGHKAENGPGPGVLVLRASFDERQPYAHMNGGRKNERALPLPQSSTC
The target in experiment [5] is Serine/threonine-protein kinase PAK 2 (Homo sapiens) (UniProt Q13177). The experiment is described as follows: Inhibition of human recombinant PAK2 at 500 nM in presence of ATP by radiometric assay relative to control.
Serine/threonine-protein kinase PAK 2 (Homo sapiens), sequence (Q13177 whole entry): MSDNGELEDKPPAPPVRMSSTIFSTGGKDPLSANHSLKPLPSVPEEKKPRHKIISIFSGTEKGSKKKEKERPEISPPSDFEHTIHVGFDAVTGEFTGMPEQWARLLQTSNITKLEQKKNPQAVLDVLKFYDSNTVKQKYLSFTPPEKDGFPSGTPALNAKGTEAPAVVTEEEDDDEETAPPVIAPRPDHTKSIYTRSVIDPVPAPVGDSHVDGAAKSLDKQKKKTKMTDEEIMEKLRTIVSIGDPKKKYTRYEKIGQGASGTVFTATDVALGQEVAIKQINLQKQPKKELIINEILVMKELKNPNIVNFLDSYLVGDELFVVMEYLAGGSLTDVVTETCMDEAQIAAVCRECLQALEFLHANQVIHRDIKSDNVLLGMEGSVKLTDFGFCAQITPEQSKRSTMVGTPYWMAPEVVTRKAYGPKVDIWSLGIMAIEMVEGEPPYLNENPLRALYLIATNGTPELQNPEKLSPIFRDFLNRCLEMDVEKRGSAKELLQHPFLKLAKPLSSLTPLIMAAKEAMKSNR
Experiment [6] addresses T2, Ephrin type-B receptor 4 (Homo sapiens) (UniProt P54760).
T2 sequence (whole entry): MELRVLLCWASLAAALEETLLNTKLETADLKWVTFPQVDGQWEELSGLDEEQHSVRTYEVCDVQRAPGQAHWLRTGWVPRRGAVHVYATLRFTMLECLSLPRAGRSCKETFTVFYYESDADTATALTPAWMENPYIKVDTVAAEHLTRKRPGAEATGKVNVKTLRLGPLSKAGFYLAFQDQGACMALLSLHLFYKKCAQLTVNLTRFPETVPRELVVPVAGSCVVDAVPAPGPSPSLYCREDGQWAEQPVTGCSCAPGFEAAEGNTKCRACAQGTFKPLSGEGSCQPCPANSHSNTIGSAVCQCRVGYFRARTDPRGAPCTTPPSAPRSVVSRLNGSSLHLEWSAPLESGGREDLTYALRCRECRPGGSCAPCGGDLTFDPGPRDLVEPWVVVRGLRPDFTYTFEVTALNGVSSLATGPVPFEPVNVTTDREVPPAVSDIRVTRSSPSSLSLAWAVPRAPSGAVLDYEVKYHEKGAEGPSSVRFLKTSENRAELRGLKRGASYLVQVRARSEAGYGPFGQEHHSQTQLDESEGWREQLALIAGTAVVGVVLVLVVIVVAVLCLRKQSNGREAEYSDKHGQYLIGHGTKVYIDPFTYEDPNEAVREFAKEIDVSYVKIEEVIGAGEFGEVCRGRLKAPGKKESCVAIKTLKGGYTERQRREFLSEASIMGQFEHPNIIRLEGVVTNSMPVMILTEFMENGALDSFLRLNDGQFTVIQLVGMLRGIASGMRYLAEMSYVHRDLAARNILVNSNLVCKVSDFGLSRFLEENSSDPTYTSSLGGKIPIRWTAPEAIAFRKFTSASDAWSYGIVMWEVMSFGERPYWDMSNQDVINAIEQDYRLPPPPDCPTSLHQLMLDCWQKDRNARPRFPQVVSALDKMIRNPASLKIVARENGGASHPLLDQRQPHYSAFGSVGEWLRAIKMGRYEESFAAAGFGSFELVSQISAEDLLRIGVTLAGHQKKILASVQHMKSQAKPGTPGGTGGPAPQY
The experiment is described as follows: Inhibition of human recombinant EphB4 at 15 nM in presence of ATP by radiometric assay relative to control.

The target of experiment [7] is Interferon-induced, double-stranded RNA-activated protein kinase (Homo sapiens) (UniProt P19525). Kind of experiment: Inhibition of human recombinant PKR at 15 nM related to control ULK1.
Interferon-induced, double-stranded RNA-activated protein kinase (Homo sapiens), sequence (P19525 whole entry): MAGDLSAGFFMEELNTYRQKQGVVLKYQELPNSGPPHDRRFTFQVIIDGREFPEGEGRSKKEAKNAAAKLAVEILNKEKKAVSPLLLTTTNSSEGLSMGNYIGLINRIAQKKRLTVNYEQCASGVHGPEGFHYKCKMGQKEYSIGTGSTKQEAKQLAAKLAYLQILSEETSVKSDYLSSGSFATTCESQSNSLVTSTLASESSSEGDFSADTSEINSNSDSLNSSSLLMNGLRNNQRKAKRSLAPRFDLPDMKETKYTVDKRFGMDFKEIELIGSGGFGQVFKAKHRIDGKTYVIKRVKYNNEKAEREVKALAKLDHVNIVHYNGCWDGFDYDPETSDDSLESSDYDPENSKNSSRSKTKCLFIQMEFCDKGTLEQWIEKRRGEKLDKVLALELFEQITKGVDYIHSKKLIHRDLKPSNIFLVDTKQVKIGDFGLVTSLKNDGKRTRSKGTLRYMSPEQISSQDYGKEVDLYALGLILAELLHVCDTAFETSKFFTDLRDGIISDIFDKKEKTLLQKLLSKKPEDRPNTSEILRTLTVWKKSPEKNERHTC
Experiment [8] deals with T3, Serine/threonine-protein kinase tousled-like 1 (Homo sapiens) (UniProt Q9UKI8).
T3 sequence (whole entry): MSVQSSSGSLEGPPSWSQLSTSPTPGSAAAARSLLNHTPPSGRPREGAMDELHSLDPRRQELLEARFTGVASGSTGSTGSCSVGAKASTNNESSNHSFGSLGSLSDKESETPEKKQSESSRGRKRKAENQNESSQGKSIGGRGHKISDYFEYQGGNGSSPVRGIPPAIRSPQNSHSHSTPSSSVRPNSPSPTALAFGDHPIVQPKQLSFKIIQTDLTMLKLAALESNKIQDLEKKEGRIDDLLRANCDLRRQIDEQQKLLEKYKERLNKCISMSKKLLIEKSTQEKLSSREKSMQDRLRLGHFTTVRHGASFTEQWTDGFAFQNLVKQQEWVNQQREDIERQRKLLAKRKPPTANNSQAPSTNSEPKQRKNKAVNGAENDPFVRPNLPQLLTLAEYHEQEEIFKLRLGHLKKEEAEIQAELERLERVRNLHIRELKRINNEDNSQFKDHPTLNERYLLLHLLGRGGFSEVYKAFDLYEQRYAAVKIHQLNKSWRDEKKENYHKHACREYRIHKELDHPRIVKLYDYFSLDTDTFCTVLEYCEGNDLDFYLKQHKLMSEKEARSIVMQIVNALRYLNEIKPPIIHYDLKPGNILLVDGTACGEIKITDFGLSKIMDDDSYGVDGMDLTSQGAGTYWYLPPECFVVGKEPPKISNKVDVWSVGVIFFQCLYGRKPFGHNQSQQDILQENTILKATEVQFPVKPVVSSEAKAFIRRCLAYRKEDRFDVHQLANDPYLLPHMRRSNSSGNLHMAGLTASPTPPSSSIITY
The experiment is described as follows: Inhibition of human recombinant TLK1 at 15 nM related to control ULK1.

Experiment [9] has as its target G protein-coupled receptor kinase 5 (Homo sapiens) (UniProt P34947). The experiment is described as follows: Inhibition of human recombinant GPRK5 at 15 nM in presence of ATP by radiometric assay relative to control.

This is an account of results in ChEMBL document CHEMBL5653631, “A Potent and Selective ULK1 Inhibitor Suppresses Autophagy and Sensitizes Cancer Cells to Nutrient Stress” (iScience, 2018).

Calcium/calmodulin-dependent protein kinase type 1B (Homo sapiens), sequence (Q6P2M8 whole entry): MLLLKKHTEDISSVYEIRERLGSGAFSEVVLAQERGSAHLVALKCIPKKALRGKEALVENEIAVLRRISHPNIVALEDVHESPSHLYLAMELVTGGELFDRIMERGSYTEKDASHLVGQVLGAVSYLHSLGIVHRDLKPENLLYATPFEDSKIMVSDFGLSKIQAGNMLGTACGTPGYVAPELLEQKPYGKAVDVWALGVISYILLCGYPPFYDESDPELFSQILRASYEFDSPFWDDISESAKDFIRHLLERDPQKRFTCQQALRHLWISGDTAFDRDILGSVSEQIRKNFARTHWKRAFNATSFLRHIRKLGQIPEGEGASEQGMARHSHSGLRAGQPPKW
G protein-coupled receptor kinase 5 (Homo sapiens), sequence (P34947 whole entry, looked up): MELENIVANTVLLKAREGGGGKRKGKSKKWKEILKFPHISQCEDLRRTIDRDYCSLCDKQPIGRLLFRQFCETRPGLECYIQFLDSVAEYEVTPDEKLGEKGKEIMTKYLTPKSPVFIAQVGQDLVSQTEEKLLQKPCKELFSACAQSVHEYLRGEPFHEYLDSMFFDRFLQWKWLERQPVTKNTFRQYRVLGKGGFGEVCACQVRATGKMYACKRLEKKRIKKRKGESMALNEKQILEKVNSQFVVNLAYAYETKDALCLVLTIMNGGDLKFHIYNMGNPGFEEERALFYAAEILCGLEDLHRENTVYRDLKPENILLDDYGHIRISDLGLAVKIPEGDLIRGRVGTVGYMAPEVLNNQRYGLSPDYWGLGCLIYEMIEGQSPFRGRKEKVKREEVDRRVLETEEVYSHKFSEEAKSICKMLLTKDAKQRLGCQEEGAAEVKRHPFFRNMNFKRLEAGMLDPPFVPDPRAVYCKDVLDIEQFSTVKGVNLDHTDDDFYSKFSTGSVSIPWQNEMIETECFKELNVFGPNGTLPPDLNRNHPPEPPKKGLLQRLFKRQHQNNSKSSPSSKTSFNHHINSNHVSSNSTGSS
Ephrin type-A receptor 4 (Homo sapiens), sequence (P54764 whole entry): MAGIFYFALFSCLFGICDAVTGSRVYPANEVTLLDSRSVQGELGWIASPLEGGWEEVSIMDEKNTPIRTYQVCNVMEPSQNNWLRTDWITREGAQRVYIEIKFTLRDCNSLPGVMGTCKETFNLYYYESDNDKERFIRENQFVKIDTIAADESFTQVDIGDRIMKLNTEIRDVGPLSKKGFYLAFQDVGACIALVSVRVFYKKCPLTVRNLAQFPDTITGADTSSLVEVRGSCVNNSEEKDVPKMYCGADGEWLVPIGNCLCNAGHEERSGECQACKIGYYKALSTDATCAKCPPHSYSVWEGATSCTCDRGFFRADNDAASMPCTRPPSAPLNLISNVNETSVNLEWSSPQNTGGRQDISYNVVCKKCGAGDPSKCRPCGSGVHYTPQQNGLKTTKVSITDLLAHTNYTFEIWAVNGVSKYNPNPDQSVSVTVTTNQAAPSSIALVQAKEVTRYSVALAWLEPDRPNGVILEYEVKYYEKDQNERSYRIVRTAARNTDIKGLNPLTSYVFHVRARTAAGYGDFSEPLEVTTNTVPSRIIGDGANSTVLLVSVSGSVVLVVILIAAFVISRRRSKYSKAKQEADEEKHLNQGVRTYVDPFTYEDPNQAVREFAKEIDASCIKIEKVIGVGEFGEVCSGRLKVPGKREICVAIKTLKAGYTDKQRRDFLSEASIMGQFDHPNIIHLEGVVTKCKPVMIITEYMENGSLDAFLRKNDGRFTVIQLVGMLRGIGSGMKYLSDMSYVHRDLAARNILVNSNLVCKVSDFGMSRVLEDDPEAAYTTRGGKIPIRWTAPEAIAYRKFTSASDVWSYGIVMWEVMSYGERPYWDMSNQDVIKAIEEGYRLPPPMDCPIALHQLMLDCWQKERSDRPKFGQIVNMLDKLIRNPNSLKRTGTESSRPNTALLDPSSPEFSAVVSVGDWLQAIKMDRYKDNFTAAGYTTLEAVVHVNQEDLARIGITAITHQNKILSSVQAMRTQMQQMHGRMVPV

For `O=C(N[C@@H](C1CC1)C(F)(F)F)c1cc(-c2cnn3cc(-c4ccc(F)cc4)cnc23)cs1`, the inhibition in [1], in experiment [2] and in experiment [3] was 0% throughout. Further, the fold change (FC) in experiment [4] was found to be 0.

In the case of `CNC(=O)c1ccccc1Oc1nc(Nc2cc(OC)c(OC)c(OC)c2)ncc1Br`, in experiment [5], the inhibition was determined as 14%.

For `CC(C)[C@H](NC(=O)c1cc(-c2cnn3cc(-c4ccc(OCCN5CCCCC5)cc4)cnc23)cs1)C(F)(F)F`, the inhibition was 3% in experiment [6] and 0% in experiment [9]. For the same compound, the values for the fold change (FC) in experiment [7] and in experiment [8] were 0.02 and 0, respectively.
